From patent US8609703B2, “Modulators of ATP-binding cassette transporters” (Vertex Pharmaceuticals Incorporated, priority 2005, dated 2013)
pEC50: −log10 of the molar value.

Target: T1, ΔF508-CFTR (Homo sapiens, UniProt P13569, DEL508-508)
T1 construct: expressed in transfected cells
Assay: EC50 and relative efficacy as modulators of ΔF508-CFTR (membrane potential optical assay)
Type: cell-based
Conditions: for % Activity: relative efficacy
Description: I) Membrane Potential Optical Methods for Assaying ΔF508-CFTR Modulation Properties of Compounds
The optical membrane potential assay utilized voltage-sensitive FRET sensors described by Gonzalez and Tsien (See., Gonzalez, J. E. and R. Y. Tsien (1995) “Voltage sensing by fluorescence resonance energy transfer in single cells” Biophys J 69(4): 1272-80, and Gonzalez, J. E. and R. Y. Tsien (1997) “Improved indicators of cell membrane potential that use fluorescence resonance energy transfer” Chem Biol 4(4): 269-77) in combination with instrumentation for measuring fluorescence changes such as the Voltage/Ion Probe Reader (VIPR) (See Gonzalez, J. E., K. Oades, et al. (1999) “Cell-based assays and instrumentation for screening ion-channel targets” Drug Discov Today 4(9): 431-439).
These voltage sensitive assays are based on the change in fluorescence resonant energy transfer (FRET) between the membrane-soluble, voltage-sensitive dye, DiSBAC2(3), and a fluorescent phospholipid, CC2-DMPE, which is attached to the outer leaflet of the plasma membrane and acts as a FRET donor. Changes in membrane potential (Vm) cause the negatively charged DiSBAC2(3) to redistribute across the plasma membrane and the amount of energy transfer from CC2-DMPE changes accordingly. The changes in fluorescence emission were monitored using VIPR which is an integrated liquid handler and fluorescent detector designed to conduct cell-based screens in 96- or 384-well microtiter plates.
To identify small molecules that correct the trafficking defect associated with ΔF508-CFTR; a single-addition HTS assay format was developed. The cells were incubated in serum-free medium for 16 hrs at 37° C. in the presence or absence (negative control) of test compound. As a positive control, cells plated in 384-well plates were incubated for 16 hrs at 27° C. to “temperature-correct” ΔF508-CFTR. The cells were subsequently rinsed 3× with Krebs Ringers solution and loaded with the voltage-sensitive dyes. To activate ΔF508-CFTR, 10 μM forskolin and the CFTR potentiator, genistein (20 μM), were added along with Cl^−-free medium to each well. The addition of Cl^−-free medium promoted Cl^− efflux in response to LF508-CFTR activation and the resulting membrane depolarization was optically monitored using the FRET-based voltage-sensor dyes.
To identify potentiators of ΔF508-CFTR, a double-addition HTS assay format was developed. During the first addition, a Cl^−-free medium with or without test compound was added to each well. After 22 sec, a second addition of Cl^−-free medium containing 2-10 μM forskolin was added to activate ΔF508-CFTR. The extracellular Cl^− concentration following both additions was 28 mM, which promoted Cl^− efflux in response to ΔF508-CFTR activation and the resulting membrane depolarization was optically monitored using the FRET-based voltage-sensor dyes.
NIH3T3 mouse fibroblasts stably expressing ΔF508-CFTR are used for optical measurements of membrane potential. The cells are maintained at 37° C. in 5% CO2 and 90% humidity in Dulbecco's modified Eagle's medium supplemented with 2 mM glutamine, 10% fetal bovine serum, 1×NEAA, (3-ME, 1× pen/strep, and 25 mM HEPES in 175 cm^2 culture flasks. For all optical assays, the cells were seeded at 30,000/well in 384-well matrigel-coated plates and cultured for 2 hrs at 37° C. before culturing at 27° C. for 24 hrs. for the potentiator assay. For the correction assays, the cells are cultured at 27° C. or 37° C. with and without compounds for 16-24 hoursB) Electrophysiological Assays for assaying ΔF508-CFTR modulation properties of compounds
Compounds of the invention are useful as modulators of ATP binding cassette transporters. Table 3 below illustrates the EC50 and relative efficacy of certain embodiments in Table 1.

T1 sequence (P13569 with tags, fused parts or gaps DEL508-508): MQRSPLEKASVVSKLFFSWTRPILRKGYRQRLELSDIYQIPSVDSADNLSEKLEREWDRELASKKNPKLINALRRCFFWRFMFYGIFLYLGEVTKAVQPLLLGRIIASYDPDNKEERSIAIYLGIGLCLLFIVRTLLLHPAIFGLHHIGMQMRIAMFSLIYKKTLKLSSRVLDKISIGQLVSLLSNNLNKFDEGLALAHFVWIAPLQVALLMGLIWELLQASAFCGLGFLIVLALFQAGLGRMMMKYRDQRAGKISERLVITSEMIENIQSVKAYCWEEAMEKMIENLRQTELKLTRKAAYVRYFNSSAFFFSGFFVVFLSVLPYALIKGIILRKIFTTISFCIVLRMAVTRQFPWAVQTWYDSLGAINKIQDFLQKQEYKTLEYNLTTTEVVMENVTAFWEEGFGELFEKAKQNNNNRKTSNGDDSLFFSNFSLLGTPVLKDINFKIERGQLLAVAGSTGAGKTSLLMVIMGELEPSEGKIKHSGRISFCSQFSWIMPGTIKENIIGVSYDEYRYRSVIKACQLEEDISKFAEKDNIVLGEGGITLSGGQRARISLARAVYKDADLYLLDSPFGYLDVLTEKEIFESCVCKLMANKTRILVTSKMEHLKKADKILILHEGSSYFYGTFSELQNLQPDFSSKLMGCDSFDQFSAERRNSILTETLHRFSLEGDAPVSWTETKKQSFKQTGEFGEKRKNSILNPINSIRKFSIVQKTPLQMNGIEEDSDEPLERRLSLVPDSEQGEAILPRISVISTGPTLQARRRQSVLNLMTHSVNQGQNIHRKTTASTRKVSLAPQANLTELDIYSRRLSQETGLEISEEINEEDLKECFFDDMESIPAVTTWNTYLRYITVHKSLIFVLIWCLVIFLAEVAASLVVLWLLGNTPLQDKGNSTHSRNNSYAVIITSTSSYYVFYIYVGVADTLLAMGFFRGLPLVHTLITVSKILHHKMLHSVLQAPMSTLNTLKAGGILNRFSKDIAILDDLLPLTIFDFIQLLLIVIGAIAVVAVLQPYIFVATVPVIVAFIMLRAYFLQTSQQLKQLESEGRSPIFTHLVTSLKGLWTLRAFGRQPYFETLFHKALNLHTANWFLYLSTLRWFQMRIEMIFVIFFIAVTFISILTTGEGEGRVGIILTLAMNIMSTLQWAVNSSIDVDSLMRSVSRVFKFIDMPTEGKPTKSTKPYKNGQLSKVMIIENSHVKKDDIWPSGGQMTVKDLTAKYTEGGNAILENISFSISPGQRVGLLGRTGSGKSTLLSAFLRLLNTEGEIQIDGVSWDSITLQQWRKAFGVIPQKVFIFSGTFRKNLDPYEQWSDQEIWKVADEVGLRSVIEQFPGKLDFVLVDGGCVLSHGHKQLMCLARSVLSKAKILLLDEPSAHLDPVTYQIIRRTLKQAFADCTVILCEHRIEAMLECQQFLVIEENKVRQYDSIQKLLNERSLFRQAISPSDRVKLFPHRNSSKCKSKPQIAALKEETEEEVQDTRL

With O=C(Nc1ccc2cc[nH]c2c1)C(=O)c1c[nH]c2ccccc12 [Cmpd 4] the pEC50 was > 6.00 and the “% Activity” value was “++ (“++” means between 25% to 100%)”.
With Cn1cc(C(=O)C(=O)Nc2ccccc2-c2ccccc2)c2ccccc21 [Cmpd 17] the pEC50 was < 5.30 and the “% Activity” value was “+ (“+” means <25%)”.
For CC(C)(C)c1cc(C(C)(C)C)c(NC(=O)C(=O)c2c[nH]c3ccccc23)cc1O [Cmpd 24], the pEC50 was > 6.00 and the “% Activity” value was “++ (“++” means between 25% to 100%)”.
O=C(Nc1ccccc1-c1ccccc1)C(=O)c1c[nH]c2ccccc12 [Cmpd 8] was tested, and the pEC50 was > 6.00 and the “% Activity” value was “++ (“++” means between 25% to 100%)”.
With CCc1ccccc1NC(=O)C(=O)c1c[nH]c2ccccc12 [Cmpd 3, N-(2-Ethyl-phenyl)-2-(1H-indol-3-yl)-2-oxo-acetamide] the pEC50 was > 6.00 and the “% Activity” value was “++ (“++” means between 25% to 100%)”.
O=C(Nc1ccccc1F)C(=O)c1c[nH]c2ccccc12 [Cmpd 23] was tested, and the pEC50 was > 6.00 and the “% Activity” value was “++ (“++” means between 25% to 100%)”.
For CCCc1ccccc1NC(=O)C(=O)c1c[nH]c2ccccc12 [Cmpd 5], the pEC50 was > 6.00 and the “% Activity” value was “++ (“++” means between 25% to 100%)”.
With O=C(Nc1ccc(N2CCN(C(c3ccccc3)c3ccccc3)CC2)cc1)C(=O)c1c[nH]c2ccccc12 [Cmpd 2] the pEC50 was 5.30 to 6.00 and the “% Activity” value was “+ (“+” means <25%)”.
With Cc1ccc(C)n1-c1ccccc1NC(=O)C(=O)c1c[nH]c2ccccc12 [Cmpd 21] the pEC50 was 5.30 to 6.00 and the “% Activity” value was “++ (“++” means between 25% to 100%)”.
O=C(Nc1ccccc1OC(F)F)C(=O)c1c[nH]c2ccccc12 [Cmpd 22] was tested, and the pEC50 was 5.30 to 6.00 and the “% Activity” value was “++ (“++” means between 25% to 100%)”.
With CC(C)(C)c1cc2cc[nH]c2cc1NC(=O)C(=O)c1c[nH]c2ccccc12 [Cmpd 25] the pEC50 was > 6.00 and the “% Activity” value was “++ (“++” means between 25% to 100%)”.
For Cc1ccccc1Oc1ccccc1NC(=O)C(=O)c1c[nH]c2ccccc12 [Cmpd 11], the pEC50 was > 6.00 and the “% Activity” value was “++ (“++” means between 25% to 100%)”.
In the case of Nc1cc(NC(=O)C(=O)c2c[nH]c3ccccc23)cc(C(F)(F)F)c1 [Cmpd 19], the pEC50 was 5.30 to 6.00 and the “% Activity” value was “++ (“++” means between 25% to 100%)”.
For C=C(C)c1ccccc1NC(=O)C(=O)c1c[nH]c2ccccc12 [Cmpd 12], the pEC50 was > 6.00 and the “% Activity” value was “++ (“++” means between 25% to 100%)”.
In the case of CC(C)(C)c1ccccc1NC(=O)C(=O)c1c[nH]c2ccccc12 [Cmpd 26], the pEC50 was > 6.00 and the “% Activity” value was “++ (“++” means between 25% to 100%)”.
In the case of Cn1cc(C(=O)C(=O)Nc2ccccc2)c2ccccc21 [Cmpd 16], the pEC50 was < 5.30 and the “% Activity” value was “++ (“++” means between 25% to 100%)”.
For O=C(Nc1ccccc1CN1CCCC1)C(=O)c1c[nH]c2ccccc12 [Cmpd 18], the pEC50 was 5.30 to 6.00 and the “% Activity” value was “++ (“++” means between 25% to 100%)”.
For CN1Cc2c(NC(=O)C(=O)c3c[nH]c4ccccc34)cccc2C(c2ccccc2)C1 (stereo not shown) [Cmpd 20], the pEC50 was > 6.00 and the “% Activity” value was “++ (“++” means between 25% to 100%)”.
In the case of O=C(Nc1cccc(C(F)(F)F)n1)C(=O)c1c[nH]c2ccccc12 [Cmpd 10], the pEC50 was > 6.00 and the “% Activity” value was “++ (“++” means between 25% to 100%)”.
CC(C)c1ccccc1NC(=O)C(=O)c1c[nH]c2ccccc12 [Cmpd 6] was tested, and the pEC50 was > 6.00 and the “% Activity” value was “++ (“++” means between 25% to 100%)”.
For CCCCc1ccccc1NC(=O)C(=O)c1c[nH]c2ccccc12 [Cmpd 13], the pEC50 was > 6.00 and the “% Activity” value was “++ (“++” means between 25% to 100%)”.
In the case of O=C(Nc1ccccc1CN1CCCCC1)C(=O)c1c[nH]c2ccccc12 [Cmpd 15], the pEC50 was > 6.00 and the “% Activity” value was “++ (“++” means between 25% to 100%)”.
In the case of O=C(Nc1ccc(F)cc1)C(=O)c1c[nH]c2ccc(Br)cc12 [Cmpd 1], the pEC50 was > 6.00 and the “% Activity” value was “+ (“+” means <25%)”.
CC(C)(C)c1ccc(NC(=O)C(=O)c2c[nH]c3ccccc23)cc1 [Cmpd 7] was tested, and the pEC50 was > 6.00 and the “% Activity” value was “++ (“++” means between 25% to 100%)”.
With O=C(Nc1ccccc1Oc1ccc(Cl)cc1Cl)C(=O)c1c[nH]c2ccccc12 [Cmpd 14] the pEC50 was > 6.00 and the “% Activity” value was “++ (“++” means between 25% to 100%)”.
For O=C(Nc1ccccc1)C(=O)c1c[nH]c2ccccc12 [Cmpd 9], the pEC50 was 5.30 to 6.00 and the “% Activity” value was “++ (“++” means between 25% to 100%)”.
